{"source": "paper PMC7041945", "about": "“Misfolded proteins bind and activate death receptor 5 to trigger apoptosis during unresolved endoplasmic reticulum stress” (eLife, 2020)", "key": {"[1]": {"system": "DR5 / ERGIC53 / giantin in HCT116 cells", "assay": "Immunofluorescence co-localization (Pearson's correlation per cell)", "type": "cell-based, Homo sapiens", "protocol": "HCT116 were seeded at 25000 cells per well in an 8-well glass-bottom μSlide (Ibidi 80827) pre-coated with Collagen IV (Sigma-Aldrich C6745, 0.03 mg/ml in PBS incubated for 30 min at RT, and then rinsed off with PBS x 3) in growth media 18 hr prior to transfection (see above for protocol). 24 hr post-transfection, the cells were fixed using 4% paraformaldehyde (PFA, Electron Microscopy Sciences) or methanol, depending on the antibody combination used for immunostaining (see table below). Samples were protected from light after fixation to preserve GFP fluorescence.\nFor fixation with 4% PFA, 32% PFA was added directly to the well in growth media for a 1:8 dilution and incubated for 10–15 min at RT. Cells were then permeabilized with PHEM buffer (60 mM PIPES, 25 mM HEPES, 10 mM EGTA, 2 mM MgCl2-hexahydrate, pH 6.9) containing 0.1% Triton-X100 for 10 min at RT for three washes.\nFor fixation with methanol, media was removed and cells were washed with cold PBS. Then methanol (pre-cooled at −20°C) was added to the well and incubated at −20°C for 3–4 min. The methanol was promptly aspirated and replaced with PHEM buffer (without Triton X-100), followed by two more 10 min washes with PHEM at RT.\nTo block against non-specific antibody interactions, cells were rinsed in PHEM (without 0.1% Triton X-100) and then incubated with PHEM containing 2% normal goat serum (Jackson Immunoresearch Laboratories, 005-000-121) for 1 hr at RT. Primary antibodies were incubated in blocking solution overnight at 4°C at the dilution noted in the table above. Cells were then washed with PHEM buffer for 10 min at RT x three and incubated with secondary antibodies, anti-mouse-AlexaFluor546 (Invitrogen A11030) and anti-rabbit-AlexaFluor633 (Invitrogen A21071), diluted 1:1000 in PHEM with 2% normal goat serum. (Secondary antibody solutions were centrifuged at 15000xg for 20 mins at 4°C to remove aggregates prior to incubating with cell samples.) After a 1 hr incubation at RT, cells were washed with PHEM buffer once, then incubated with PHEM buffer containing nuclear stain (DAPI, Molecular Probes, Eugene, OR, D-1306, 5 μg/mL), and finally rinsed with PHEM buffer twice before imaging.\nSamples were imaged on a spinning disk confocal with Yokogawa CSUX A1 scan head, Andor iXon EMCCD camera, and 40x Plan Apo air Objective NA 0.95 or 100x ApoTIRF objective NA 1.49 (Nikon).\nFrom the 405 nm channel, cell nuclei were identified as primary objects using maximum correlation thresholding (MCT) and shape to distinguish clumped objects. Secondary objects were outlined using propagation from the nuclei (DAPI) after applying MCT from the 488 nm, 561 nm, and 633 nm channels. Tertiary objects for each cell was identified as the mask of each nucleus subtracted from the mask of its corresponding secondary object in each channel, yielding masks for intracellular GFP-tagged protein from the 488 nm channel, for intracellular DR5 from the 561 nm channel, and for the organelle marker in the 633 nm channel. For overlap between DR5 and MPZ/RHO-GFP, Pearson’s correlation coefficients were calculated within the MPZ/RHO mask for each cell to filter out untransfected cells. For overlap between DR5/MPZ and organelle markers, Pearson’s correlation coefficients were calculated within tertiary objects for the organelle marker in GFP+ cells. Statistical analyses for all data sets were performed using GraphPad Prism 6.0."}, "[2]": {"system": "PARP / caspase 8 / caspase 3 in HCT116 cells", "assay": "Western blot of HCT116 lysates (PARP, caspase 8 and caspase 3 cleavage, DR5 level)", "type": "cell-based, Homo sapiens", "settings": "HCT116, 24 hr, titration of construct", "protocol": "Media and cells for each sample were collected by cell scraping into cold PBS followed by a subsequent wash with 1 ml of cold PBS. The cell pellet was then resuspended in cold lysis buffer (30 mM HEPES pH 7.2, 150 mM NaCl, 1% Triton X100, 1x Roche protease inhibitor) and lysed via needle shearing on ice. Samples were centrifuged at 1000xg for 5 min, and the supernatants were mixed with sample buffer to a final concentration of 1% SDS, 62.5 mM Tris-HCl pH 6.8, 10% glycerol, 0.1% bromophenol blue, 50 mM DTT. Samples were boiled at 95°C and loaded on SDS-PAGE gels (GenScript). Samples were subsequently transferred onto nitrocellulose membranes, blocked with Odyssey buffer (Licor) for 1 hr at RT, and probed with primary antibodies diluted 1:1000 (unless otherwise specified) in Licor Odyssey buffer supplemented with 0.1% Tween 20% at 4°C overnight.\nBound primary antibodies were probed by HRP-conjugated secondary antibodies (Amersham, Piscataway, NJ, 1:10000) using enhanced chemiluminescence (SuperSignal; Thermo Scientific, Waltham, MA) detected by standard film or through the ChemiDoc XRS+ Imaging System (Bio-Rad)."}, "MPZ": {"system": "MPZ", "assay": "qPCR of transfected MPZ transcript (primers 296+297), normalized to GAPDH", "type": "cell-based", "settings": "qPCR Rep 2, WT MPZ GFP 1000 ng, or empty traffo + Tg; for 2^-(deltaCq), MPZ: vs avg GAPDH"}, "[3]": {"system": "GADD34 mRNA in HCT116 cells", "assay": "qPCR of GADD34 transcript", "type": "cell-based, Homo sapiens", "settings": "HCT116, 100 nM for 24 hours, norm to GAPDH"}, "[4]": {"settings": "HCT116, 24 hr post-transfection, Mean ± SEM"}}}
{"molecule": "FTWRYQPEGGRDAISIFHYA [MPZ-ecto peptide-eGFP, expressed construct: MPZ ectodomain replaced by the MPZ-ecto peptide, GFP-tagged]", "values": [{"measurement": "Pearson's correlation per cell of GFP-tagged peptide with DR5", "setting": "[1]; [4]", "value": "0.23 ± 0.04"}, {"measurement": "Pearson's correlation per cell of GFP-tagged peptide with ERGIC", "setting": "[1]; [4]", "value": "0.18 ± 0.04"}, {"measurement": "Pearson's correlation per cell between DR5 and ERGIC", "setting": "[1]; HCT116 expressing GFP-tagged peptide, 24 hr, Mean ± SEM", "value": "0.34 ± 0.03"}, {"measurement": "PARP cleavage and caspase activity", "setting": "[2]", "value": "induced more PARP cleavage and caspase activity than similar or higher levels of the peptides containing Glu substitutions"}, {"measurement": "PARP cleavage and caspase activity", "setting": "[2]; listed as WT MPZ-ecto", "value": "PARP cleavage and caspase activity measured in cell lysates were increased"}]}
{"molecule": "RHO-GFP: GFP-tagged rhodopsin expressed from plasmid", "values": [{"measurement": "overlap (mean Pearson's correlation) with DR5 signal", "setting": "[1]; versus 90° rotated images, 24 hr", "value": "statistically significant overlap with DR5 signal"}]}
{"molecule": "C/C=C(/C)C(=O)O[C@H]1C(C)=C2[C@H]([C@@H]1OC(=O)CCCCCCC)[C@@](C)(OC(C)=O)C[C@H](OC(=O)CCC)[C@@]1(O)[C@H]2OC(=O)[C@@]1(C)O", "note": "[thapsigargin, reference compound]", "values": [{"measurement": "avg. fold induction relative to WT MPZ DMSO, MPZ", "setting": "MPZ; mean of 3", "value": 9.712, "unit": "fold"}, {"measurement": "fold induction relative to WT MPZ DMSO, MPZ", "setting": "MPZ; replicate 1", "value": 3.402, "unit": "fold"}, {"measurement": "fold induction relative to WT MPZ DMSO, MPZ", "setting": "MPZ; replicate 2", "value": 14.9405, "unit": "fold"}, {"measurement": "fold induction relative to WT MPZ DMSO, MPZ", "setting": "MPZ; replicate 3", "value": 10.7918, "unit": "fold"}, {"measurement": "2^-(deltaCq), MPZ", "setting": "MPZ; replicate 1", "value": 0.0001664}, {"measurement": "2^-(deltaCq), MPZ", "setting": "MPZ; replicate 2", "value": 0.0007308}, {"measurement": "2^-(deltaCq), MPZ", "setting": "MPZ; replicate 3", "value": 0.0005279}, {"measurement": "avg. fold induction, GADD34", "setting": "[3]", "value": 11.3183}]}
